For this test, the target named is T1, human PepT1 (SLC15A1) (Homo sapiens, UniProt P46059).
T1 construct: host or cells: MDCK-II
T1 sequence (P46059 1-708): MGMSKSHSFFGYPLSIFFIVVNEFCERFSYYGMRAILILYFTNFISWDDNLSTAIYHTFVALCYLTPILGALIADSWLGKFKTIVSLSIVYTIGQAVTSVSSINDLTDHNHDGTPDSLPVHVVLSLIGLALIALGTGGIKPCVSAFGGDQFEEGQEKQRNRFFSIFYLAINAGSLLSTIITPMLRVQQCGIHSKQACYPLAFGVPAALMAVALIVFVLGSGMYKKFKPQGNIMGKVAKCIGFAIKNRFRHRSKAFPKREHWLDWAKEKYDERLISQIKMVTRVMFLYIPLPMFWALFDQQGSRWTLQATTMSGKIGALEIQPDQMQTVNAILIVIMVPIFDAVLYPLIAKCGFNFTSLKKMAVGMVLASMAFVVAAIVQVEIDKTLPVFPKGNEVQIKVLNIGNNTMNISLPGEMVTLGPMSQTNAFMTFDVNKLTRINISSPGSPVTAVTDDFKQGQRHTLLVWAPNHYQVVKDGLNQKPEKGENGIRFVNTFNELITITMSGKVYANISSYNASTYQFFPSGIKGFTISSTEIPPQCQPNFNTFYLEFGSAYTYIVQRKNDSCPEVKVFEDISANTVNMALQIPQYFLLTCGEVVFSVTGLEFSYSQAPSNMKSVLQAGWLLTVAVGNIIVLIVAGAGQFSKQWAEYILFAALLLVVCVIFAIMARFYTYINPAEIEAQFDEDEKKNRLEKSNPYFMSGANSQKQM
As to the kind of experiment: Inhibition of PepT1 uptake of probe substrate Gly-Sar in MDCK-II cells. Particulars: probe Gly-Sar 50 µM; positive control losartan 200 µM; pH 5.5. It counts as cell-based. The method, then: Transport studies with human PepT1 (SLC15A1), LAT1 (SLC7A5) and MCT1 (SLC16A1) were conducted in MDCK-II cells expressing the human transporter or control cells expressing a vector with Green Fluorescence Protein. Cells were transfected using a proprietary, transient transfection system (OPTI-EXPRESSION Technology, BioIVT). The results from the control cells were used to correct for substrate permeation by routes other than the transporter being investigated in the study. […] Specifically, Net Transporter Mediated Substrate Uptake (pmol/min/cm^2) = (Cellular accumulation in the presence of the transporter) − (Mean cellular accumulation in the absence of the transporter). MDCK-II cells were maintained in DMEM with low glucose and 10% FBS. Cells were used at passages up to 40 were seeded at 60,000 ± 10,000 cells/well on 96-well plates approximately 24 h before transfection, and transport assays were performed approximately 48 h after transfection. […]
Transport studies with PepT1 were conducted in 96-well cell culture plate with wells containing a monolayer of MDCK-II cells grown on a permeable support and a corresponding 96-well receiver tray. […] Then a 30-µL sample was taken and mixed with 200 µL of scintillation fluid and scintillation counted (1450 Microbeta, Perkin-Elmer). […]

The values that follow come from PMC8338929, “Acetylation turns leucine into a drug by membrane transporter switching” (Scientific Reports, 2021).

The term IC50 denotes the concentration that gives 50% inhibition.

In the case of `CC(=O)N[C@@H](CC(C)C)C(=O)O` [N-acetyl-L-leucine], the IC50 is 740 µM.
